Measured values: patent US20050272636A1, “Treatment and diagnosis of a reproductive disorder by measuring or inhibiting interferon-gamma” (Adelaide Research & Innovation Pty Ltd., priority 2002, published 2005)

Tested on: IFNγ
Test: Inhibitors and antagonists counteracting the GM-CSF-inhibiting actions of IFNγ in uterine epithelial cells (Example 3)
Format: cell-based, mouse
Conditions: added in combination with IFNγ; dose-responsive, 5 ng/ml greater effect than 0.5 ng/ml
Experimental: Several inhibitors and antagonists of IFNγ were tested for their ability to counteract the GM-CSF-inhibiting actions of IFNγ in epithelial cells.
Uterine Epithelial Cell Cultures. Uterine epithelial cells prepared by pancreatin-trypsin digest as previously described (Robertson et al., (1992) Biol. Reprod. 46:1069-1079) were pooled from 4-6 estrous adult C57B1/6×CBA F1 female mice and plated in 1 ml culture wells (Nunc, Roskilde, Germany) at 1-2×10^5 cells per ml in 500 μl of RPMI containing 10% FCS and streptomycin (RPMI-FCS). Penicillin was omitted from culture media except where specified. After 4 h incubation at 37° C. in 5% CO2 to allow cell adherence, a further 500 μl of cytokines or antibodies in RPMI-FCS, or RPMI-FCS alone, were added. Cytokine treatments included recombinant mouse interferon-γ (rmIFNγ; R&D Systems), recombinant human transforming growth factor β1 (rhTGFβ1, R&D Systems), rhTGFβ2 (R&D Systems), rhTGFβ3 (OSI Pharmaceuticals). Antibody treatments included goat anti-mouse IFNγ receptor 1 (αIFNγR; R&D Systems AF1026) and hamster anti-mouse IFNγ (αIFNγ; R&D Systems MAB4851). Culture supernatants were collected and replaced with fresh complete RPMI-FCS alone at 16 hours, then collected again 24 hours later, at which time adherent cells were quantified as previously described (Robertson et al., (1992) Biol. Reprod. 46:1069-1079). The GM-CSF content of 24 h supernatants was determined by GM-CSF bioassay or immunoassay. All treatments were performed in duplicate or triplicate.
GM-CSF bioassay and immunoassay: Bioactive GM-CSF was assayed using the GM-CSF dependant cell line FD 5/12, essentially as previously described (Robertson et al., (1992) Biol. Reprod. 46:1069-1079). Cell proliferation was determined by the addition of 1 μCi of [^3H]-thymidine per well for the last 6 h of the assay. The minimal detectable amount of GM-CSF was […] The identity of the bioactivity in uterine epithelial cell cultures was confirmed using a goat polyclonal antibody to murine GM-CSF kindly provided by J. Schreurs (DNAX, Palo Alto, Calif.) as previously described (Robertson et al., (1992) Biol. Reprod. 46:1069-1079). GM-CSF immunoactivity was in some experiments measured by commercial mouse GM-CSF specific ELISA (R & D Systems) according to the manufacturer's instructions.

Question: For “rhTGFβ1: recombinant human transforming growth factor β1 (R&D Systems)”, which “effect of TGFβ isoform on the inhibitory effect of IFNγ on GM-CSF synthesis” value is on record?
Answer: The value was “counteracted the inhibitory effect”.
